Data reported in paper doi:10.1101/2023.10.24.563163v2, “Targeting cancer with small molecule pan-KRAS degraders” (biorxiv, 2024).
Like-named read-outs stand apart in the source and are kept apart here.

Key:
NCI-H358 = assay: cells; set-up: Inhibition of cell proliferation, 5 days; settings: Homo sapiens, NCI-H358, 120 h; read-out: IC50 Proliferation NCI-H358
From the text: Next, we set out to test the ability of a single pan-KRAS degrading molecule, compound 4, to selectively suppress oncogenic signaling and proliferation in cancer cell lines driven by diverse KRAS mutants. To this end, we first confirmed degradation of KRAS by compound 4 in KRAS-dependent (GP2d, SW620 and NCI-H358 expressing KRAS^G12D, - G12V or -G12C, respectively) as well as in KRAS independent (A-375, HEK293) cell lines (Fig. 3A, fig. S4A). […] Both inhibition and degradation repressed the established markers of MAPK signaling pERK (fig. S4B-D) and DUSP6 (Fig. 3B, fig. S4E) in KRAS dependent cell lines. […] Neither degradation nor inhibition had appreciable antiproliferative effects in the KRAS independent cell lines A-375 and HEK293 (Fig. 3C, fig. S4F). […] Pan-KRAS degradation impacts MAPK signaling and cancer cell proliferation.

KRAS^WT = target: T1, KRAS^WT (Homo sapiens, UniProt P01116); set-up: KRAS degradation by capillary electrophoresis immunodetection; settings: read-out: DC50 24 h A375
T1 construct: endogenous wild type
T1 sequence (P01116 whole entry): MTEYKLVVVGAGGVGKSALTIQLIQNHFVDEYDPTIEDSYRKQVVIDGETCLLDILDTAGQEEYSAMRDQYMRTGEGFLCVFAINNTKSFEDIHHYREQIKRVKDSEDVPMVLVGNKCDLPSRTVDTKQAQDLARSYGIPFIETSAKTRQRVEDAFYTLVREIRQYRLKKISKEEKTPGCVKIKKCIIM

KRAS^G12C = KRAS^G12C (Homo sapiens, UniProt P01116, G12C); set-up: endogenous; KRAS degradation by capillary electrophoresis immunodetection; settings: read-out: DC50 24 h NCI-H358
Chain of KRAS^G12C (P01116 whole entry G12C): as the sequence (P01116 whole entry) above, with G12C counted along it
Procedure: Protein Detection by Capillary Electrophoresis Cells (50 000) were seeded the day before treatment into 96-well clear-flat bottom plates and incubated overnight (37 °C, humidified tissue culture incubator, 5% CO2). Compounds were added from DMSO stock solution using a digital dispenser and cells are incubated at 37 °C as specified (24 hours for KRAS degradation, 6 hours for determination of pERK levels). At the end of the incubation, medium was removed, cells washed with ice cold PBS, PBS removed and 50 µL lysis buffer (Meso Scale Discovery #R60TX-2) supplemented with 1:100 protease inhibitor solution, 1:100 phosphatase inhibitor I, 1:100 phosphatase inhibitor II (Meso Scale Discovery #R70AA-1), 0.5 µL/mL Benzonase (Novagen #70664-3) and 10 mM dithiothreitol added to each well. Plates with lysis buffer were immediately transferred to -80 °C freezer for at least 2 hours and then thawed on ice. Lysates were transferred to a 96 well V-bottom plate and insoluble debris was pelleted by centrifugation for 20 min. at 4 000 rpm. 40 µL of the supernatant were transferred to a fresh Eppendorf PCR plate. Analysis of protein levels was conducted using the Wes System, ProteinSimple (https://www.bio-techne.com/) as specified by the manufacturer. […]

KRAS^G12D = KRAS^G12D (Homo sapiens, UniProt P01116, G12D); set-up: endogenous or HiBiT-tagged in cells; KRAS degradation by capillary electrophoresis (Wes) immunodetection; settings: GP2d; 6 h; degrader
Chain of KRAS^G12D (P01116 whole entry G12D): as the sequence (P01116 whole entry) above, with G12D counted along it

KRAS wild type = target: T2, KRAS wild type (Homo sapiens, UniProt P01116); set-up: KRAS degradation by capillary electrophoresis (Wes) immunodetection; settings: 6 h, degrader
T2 construct: endogenous in A375 / HEK293
T2 sequence (P01116 whole entry): as the sequence (P01116 whole entry) above

GP2d = assay: cells; set-up: pERK levels by capillary electrophoresis; settings: GP2d, 6 h
Procedure: Protein Detection by Capillary Electrophoresis Cells (50 000) were seeded the day before treatment into 96-well clear-flat bottom plates and incubated overnight (37 °C, humidified tissue culture incubator, 5% CO2). Compounds were added from DMSO stock solution using a digital dispenser and cells are incubated at 37 °C as specified (24 hours for KRAS degradation, 6 hours for determination of pERK levels). At the end of the incubation, medium was removed, cells washed with ice cold PBS, PBS removed and 50 µL lysis buffer (Meso Scale Discovery #R60TX-2) supplemented with 1:100 protease inhibitor solution, 1:100 phosphatase inhibitor I, 1:100 phosphatase inhibitor II (Meso Scale Discovery #R70AA-1), 0.5 µL/mL Benzonase (Novagen #70664-3) and 10 mM dithiothreitol added to each well. Plates with lysis buffer were immediately transferred to -80 °C freezer for at least 2 hours and then thawed on ice. Lysates were transferred to a 96 well V-bottom plate and insoluble debris was pelleted by centrifugation for 20 min. at 4 000 rpm. 40 µL of the supernatant were transferred to a fresh Eppendorf PCR plate. Analysis of protein levels was conducted using the Wes System, ProteinSimple (https://www.bio-techne.com/) as specified by the manufacturer. Briefly, Wes Master Mix (12-230 kDa WES Separation Module, 8 × 25 capillary cartridges, ProteinSimple #SM-W004) and molecular weight markers were prepared as specified in the manufacturer’s recommendations. To detect primary antibodies, anti-rabbit (Protein Simple #DM-001) or anti-mouse (Protein Simple #DM-002) detection modules were used. 7.2 µL lysate + 1.8 µL master mix were combined and heated to 95 °C for 5 min. Th

IC50 (NCI-H358)	DC50 (KRAS^WT)	DC50 (KRAS^G12C)	DC50 (KRAS^G12D)	DC50 (KRAS wild type; A375)	DC50 (KRAS wild type; HEK293)	IC50 (GP2d)	SMILES
983 nM	455 nM	241 nM	53.4 nM	751 nM	> 1000 nM	772 nM	Cc1ncsc1-c1ccc(CNC(=O)[C@@H]2C[C@@H](O)CN2C(=O)[C@@H](NC(=O)CCCCCN2CCCN(c3nccc(-c4noc([C@@]5(C)CCCc6sc(N)c(C#N)c65)n4)n3)[C@@H](C)C2)C(C)(C)C)cc1 [compound 3]
85.4 nM	33.4 nM	25.1 nM	7.3 nM	36.7 nM	12.8 nM	3.1 nM	Cc1ncsc1-c1ccc(CNC(=O)[C@@H]2C[C@@H](O)CN2C(=O)[C@@H](c2cc(OCCCCN3CCCN(c4nccc(-c5noc([C@@]6(C)CCCc7sc(N)c(C#N)c76)n5)n4)[C@@H](C)C3)no2)C(C)C)cc1 [compound 4]
